PMC12581733, “Microbial Transglutaminase Increases Uptake and Translocation of Gliadin Peptides in the Human Intestinal Epithelium” (Molecular Nutrition & Food Research, 2025)

T1: TG2 (Homo sapiens, UniProt P21980)
T1 construct: purchased Zedira T022
T1 sequence (P21980 1-687): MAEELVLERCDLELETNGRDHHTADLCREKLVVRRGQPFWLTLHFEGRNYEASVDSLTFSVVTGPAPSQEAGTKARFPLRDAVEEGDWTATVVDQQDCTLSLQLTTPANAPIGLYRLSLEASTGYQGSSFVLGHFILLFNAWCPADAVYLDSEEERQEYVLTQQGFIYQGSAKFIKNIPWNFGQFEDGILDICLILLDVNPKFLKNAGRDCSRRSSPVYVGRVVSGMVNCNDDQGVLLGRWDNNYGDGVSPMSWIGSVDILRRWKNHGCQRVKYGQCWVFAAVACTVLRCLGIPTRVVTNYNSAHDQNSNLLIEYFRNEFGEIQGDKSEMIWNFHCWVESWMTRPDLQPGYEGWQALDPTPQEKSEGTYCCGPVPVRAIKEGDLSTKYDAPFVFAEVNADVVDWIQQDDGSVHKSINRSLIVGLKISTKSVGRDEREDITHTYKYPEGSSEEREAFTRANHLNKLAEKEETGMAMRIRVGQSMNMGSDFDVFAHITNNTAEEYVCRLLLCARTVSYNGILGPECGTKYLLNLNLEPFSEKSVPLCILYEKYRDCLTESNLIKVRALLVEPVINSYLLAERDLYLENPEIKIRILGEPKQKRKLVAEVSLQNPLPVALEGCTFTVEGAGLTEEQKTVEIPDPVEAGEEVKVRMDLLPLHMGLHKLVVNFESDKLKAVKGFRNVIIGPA

B1: TG2: transglutaminase 2 (T022, Zedira) (protein, UniProt P21980 2-687, looked up)
Protein-glutamine …: AEELVLERCDLELETNGRDHHTADLCREKLVVRRGQPFWLTLHFEGRNYEASVDSLTFSVVTGPAPSQEAGTKARFPLRDAVEEGDWTATVVDQQDCTLSLQLTTPANAPIGLYRLSLEASTGYQGSSFVLGHFILLFNAWCPADAVYLDSEEERQEYVLTQQGFIYQGSAKFIKNIPWNFGQFEDGILDICLILLDVNPKFLKNAGRDCSRRSSPVYVGRVVSGMVNCNDDQGVLLGRWDNNYGDGVSPMSWIGSVDILRRWKNHGCQRVKYGQCWVFAAVACTVLRCLGIPTRVVTNYNSAHDQNSNLLIEYFRNEFGEIQGDKSEMIWNFHCWVESWMTRPDLQPGYEGWQALDPTPQEKSEGTYCCGPVPVRAIKEGDLSTKYDAPFVFAEVNADVVDWIQQDDGSVHKSINRSLIVGLKISTKSVGRDEREDITHTYKYPEGSSEEREAFTRANHLNKLAEKEETGMAMRIRVGQSMNMGSDFDVFAHITNNTAEEYVCRLLLCARTVSYNGILGPECGTKYLLNLNLEPFSEKSVPLCILYEKYRDCLTESNLIKVRALLVEPVINSYLLAERDLYLENPEIKIRILGEPKQKRKLVAEVSLQNPLPVALEGCTFTVEGAGLTEEQKTVEIPDPVEAGEEVKVRMDLLPLHMGLHKLVVNFESDKLKAVKGFRNVIIGPA

What was measured:
Caco‐2 cells [1] = conditions: inhibitor 100 µM, TG2 100 nM; immunofluorescence microscopy
TG2 [2] = biological target: T1, TG2; assay: Immunoblot of gliadin-transglutaminase complexes; type: biochemical; conditions: TG2 1 µM, ERW1041 100 µM, 30 min, 37°C, n = 3
Description: TG2 or mTG (1 µM) was incubated with gliadin peptides (Table 2) with or without ERW1041 as TG2 blocker or the mTG‐blocker (100 µM) in Tris buffer. Biotinylated gliadin peptides or PTG was added to the solution at the indicated concentrations, and incubation was performed for 30 min at 37°C. The reaction was stopped by placing the samples on ice. Detailed description of the conditions for electrophoresis and blotting have been published elsewhere. After blocking the membrane for 1 h with 5% nonfat dry milk in phosphate buffered saline (PBS) + 2.5% tween, incubation with the primary antibody was performed at 4°C overnight (Table 3). The next day, incubation with the corresponding HRP‐conjugated secondary antibody was done. The crosslinking of biotinylated gliadin peptides was detected by streptavidin‐HRP alone. Visualization was done with the Super‐Signal West Femto kit (34096, Thermo Fisher Scientific, Langenselbold, Germany) for 5 min. Image processing and quantitation were performed using a ChemiDoc XRS+ imager and Image Lab software (BioRad Laboratories, Feldkirchen, Germany).

TG2 [3] = biological target: T1, TG2; assay: In vitro transamidation (crosslinking) of gliadin peptides, indirect ELISA, TG2; type: biochemical; conditions: inhibitor 100 µM, Fig. 1A
Description: TG2 (10 nM, T022, Zedira, Darmstadt, Germany) or mTG (10 nM, T001, Zedira) were immobilized on a 96‐well plate (Sarstedt, Nümbrecht, Germany) in 50 mM Tris, 1 mM ethylenediamine tetraacetic acid (EDTA), 5 mM calcium chloride (pH 7.5) buffer containing 10 mM dithiotreitol (DTT, Merck KGaA, Darmstadt, Germany). After blocking with 2% bovine serum albumin (BSA, Carl Roth GmbH, Karlsruhe, Germany), the transglutaminase inhibitors ERW1041 (5095220001, Sigma–Aldrich, Darmstadt, Germany) and mTG‐blocker (C102, Zedira, each 100 µM) were applied according to protocol. Immobilized transglutaminases were incubated with biotin‐conjugated gliadin peptides or pepsin/trypsin digested gliadin (PTG, Table 2). Detection of crosslinked biotinylated gliadin peptides and PTG was done using horseradish peroxidase (HRP)‐conjugated streptavidin (1:2500, 405210, Biolegend, San Diego, CA, USA) or a specific gliadin antibody (1:1000, clone XGY4, Zedira) and the corresponding secondary HRP‐conjugated antibody (1:1000; sc‐516102, Santa Cruz Biotechnology, Dallas, TX, USA). The HRP‐substrate tetramethylbenzidine (TMB, T0440, Sigma–Aldrich, Darmstadt, Germany) was added, and photometric quantitation at 655 nm was performed after 15 min using a Clariostar Plus microplate reader (BMG Labtech, Ortenberg, Germany).

TG2 [4] = biological target: T1, TG2; assay: Extracellular crosslinking of 5BP to the Caco-2 cell surface by TG2; type: cell-based; conditions: 5BP 500 µM, TG2 100 nM, 1 h; dose-dependent; fluorometry and confocal microscopy
Description: Confluent Caco‐2 cell monolayers were incubated with the transglutaminase substrate EZ‐link pentylamine‐biotin (5‐biotinamidopentylamine [5BP], 500 µM, 21345, Thermo Fisher Scientific) with or without mTG or TG2 (100 nM) in Tris buffer for 1 h. Corresponding transglutaminase inhibitors ERW1041 and mTG‐blocker were added to the solution at the indicated concentration. After fixation with 4% paraformaldehyde and blocking with 5% BSA, cells were incubated with streptavidin‐Alexa Fluor488 (S11223, 4 µg/mL, Thermo Fisher Scientific). Fluorometric quantitation was conducted using a FLUOstar Optima microplate reader (BMG Labtech, Ortenberg, Germany). For immunofluorescence microscopy, nuclei were stained with Hoechst dye (1:1000 in PBS, 44442, Thermo Fisher Scientific) for 10 min. Microscopy was done using a confocal laser scanning microscope (TE2000‐E, Nikon) and 20x Plan Apo […] objective. Image processing and quantitation were performed using ImageJ [32].

Caco‐2 cells [5] = conditions: inhibitor 100 µM, TG2 100 nM, biotinylated P56-88 and P31-49; fluorometry
Caco‐2 cells [6] = assay: Cell viability, PrestoBlue HS assay; type: cell-based, human; conditions: used concentrations, 24 hours in culture medium; PrestoBlue HS 2 hours; Figure S1
Description: The effect of transglutaminases on the viability of Caco‐2 cells was investigated using the resazurin‐based PrestoBlue HS assay (P50200, Thermo Fisher Scientific) as described elsewhere. Details are provided in the Supporting Information.
Cells were incubated with mTG or TG2 at the indicated concentrations for 24 hours in culture medium. Incubation with PrestoBlue HS, diluted 1:10 in medium was performed for 2 hours at 37°C. Fluorometric examination was conducted using a Clariostar Plus microplate reader.

Effect of inhibitor on TG2-mediated crosslinking of 5BP to the cell surface (TG2 [4])	Molecule	Effect of inhibitor on TG2-enhanced cellular uptake of P56-88 (Caco‐2 cells [1])	Effect of inhibitor on transamidation of gliadin peptides to TG2 (TG2 [2])	Effect of inhibitor on TG2-mediated crosslinking of PTG (TG2 [3])	Effect of inhibitor on TG2-mediated gliadin peptide uptake (Caco‐2 cells [5])	Effect on cell viability (Caco‐2 cells [6])
reduced crosslinking of 5BP	O=C(NC[C@@H]1CC(Br)=NO1)[C@@H]1CCCN1C(=O)OCc1cnc2ccccc2c1 [ERW1041]	reduced cellular peptide uptake to the baseline level	significantly reduced transamidation of all gliadin peptides to TG2	significantly reduced crosslinking of PTG	to the baseline level	
	B1					did not affect cell viability
